Assays:
[1] = biological target: T1, recombinant human Wee1A kinase (Homo sapiens, UniProt P30291); experiment: Wee1A kinase binding assay (LanthaScreen Eu time-resolved FRET); conditions: 30 nM tracer 178, 5 nM Wee1A kinase, 2 nM Eu-labeled antibody; 60 minutes at room temperature; read-out: Wee1A kinase Binding IC50
T1 construct: full length Wee1 kinase was expressed by baculovirus in insect cells; purchased Invitrogen PV3817; host or cells: insect cells (baculovirus)
How it was run: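 Full-length, baculovirus-expressed GST-tagged Wee1A (5 nM) was mixed with 2 nM Eu-anti-GST antibody, 30 nM kinase tracer 178 and compound (1% DMSO). Buffer was 50 mM HEPES pH 7.5, 10 mM MgCl2, 1 mM EGTA, 0.01% Brij-35, incubated 60 min at room temperature. TR-FRET 665/615 nm emission ratios from duplicates were curve-fitted.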

[2] = biological target: T2, Myt1 kinase (recombinant PMYT-1) (Homo sapiens, UniProt Q99640); experiment: Myt1 kinase binding assay (LanthaScreen Eu Kinase Binding Assay); conditions: 3 nM tracer 178, 2.5 nM PMYT-1, 1 nM Eu-labeled antibody; read-out: Myt1 kinase Binding IC50
T2 construct: full length PMYT-1 was expressed by baculovirus in insect cells; purchased Invitrogen A30984; host or cells: insect cells (baculovirus)
T2 sequence (Q99640 1-499): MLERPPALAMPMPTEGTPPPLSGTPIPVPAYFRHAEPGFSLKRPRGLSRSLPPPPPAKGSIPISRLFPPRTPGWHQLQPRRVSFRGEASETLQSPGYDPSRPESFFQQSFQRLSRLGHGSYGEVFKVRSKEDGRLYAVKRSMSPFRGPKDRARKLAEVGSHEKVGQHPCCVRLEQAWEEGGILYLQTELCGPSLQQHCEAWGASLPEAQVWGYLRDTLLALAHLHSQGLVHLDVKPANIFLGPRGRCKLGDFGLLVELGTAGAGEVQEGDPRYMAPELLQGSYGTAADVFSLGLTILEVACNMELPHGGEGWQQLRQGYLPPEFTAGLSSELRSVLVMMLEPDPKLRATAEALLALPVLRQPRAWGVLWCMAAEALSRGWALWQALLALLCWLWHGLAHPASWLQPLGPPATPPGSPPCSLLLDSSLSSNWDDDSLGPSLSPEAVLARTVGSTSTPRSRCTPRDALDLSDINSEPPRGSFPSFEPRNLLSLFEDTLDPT
How it was run: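 The binding affinity of compounds for Myt1 kinase was measured with a LanthaScreen Europium (Eu) Kinase Binding Assay, a time-resolved FRET format in which test compounds compete against a labeled kinase tracer, and the results were expressed as IC50 values describing compound binding to Myt1.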

[3] = biological target: T3, Myt1 kinase (CDK1 Thr14 phosphorylation in DAOY medulloblastoma cells) (Homo sapiens, UniProt Q99640); experiment: AlphaLISA assay, Myt1 kinase target engagement (phospho-CDK1 Thr14) in DAOY cells; format: cell-based; conditions: 4 h treatment, read-out: CDK1 Thr14 Phosphorylation EC50
T3 construct: pCDK1 Thr14 AlphaLISA read-out
T3 sequence (Q99640 1-499): T2 sequence (Q99640 1-499)
How it was run: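 Cells seeded at 10,000 (DAOY) or 20,000 (ACHN) per well, treated 24 h later for 4 h with compound at 7–5000 nM. Lysates analysed by AlphaLISA SureFire Ultra phospho-CDK1 (Thr14) with donor/acceptor beads; EC50 from dose-response curves.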

[4] = biological target: T4, Wee1A kinase (CDK1 Tyr15 phosphorylation in ACHN renal cell carcinoma cells) (Homo sapiens, UniProt P30291); experiment: High-content imaging of pCdk1 Y15, Wee1A kinase target engagement in ACHN cells; format: cell-based; conditions: 4 h treatment, nuclear positivity for pCdk1 Y15 vs DMSO control, read-out: CDK1 Tyr15 Phosphorylation EC50
T4 construct: pCDK1 Tyr15 immunofluorescence read-out
How it was run: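 ACHN cells exposed to compound for 4 h over 7–5,000 nM or 0.3–200 nM, then fixed and immunostained for pCDK1 Y15 with DAPI nuclear counterstain. The percentage of pCdk1 Y15 nucleus-positive cells relative to DMSO control was imaged per well; EC50 from dose-response curves.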

ACHN cells = experiment: Cell Titer Glo viability assay, ACHN cells; format: cell-based; conditions: Homo sapiens, 144 h, absolute EC50
How it was run: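 Cells grown in MEM with 10% FCS were seeded at 500 (A427), 400 (ACHN) or 250 (DAOY) per well and treated the next day with compound at 17 to 10 000 nM. Viability relative to untreated control was read at 144 h by CellTiter-Glo 2.0.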

DAOY cells = experiment: Cell Titer Glo viability assay, DAOY cells; format: cell-based; conditions: Homo sapiens, 144 h, absolute EC50
Method: Each of an ACHN renal cell carcinoma cell line (ATCC) and a DAOY medulloblastoma cell line, and an A427 lung cancer line were cultured in Minimum Essential Medium Eagle supplemented with 10% fetal calf serum (Sigma), 1% Penicillin-Streptomycin and 10 mM HEPES buffer (HyClone). Cell cultures were kept in a humidified incubator at 37 °C and 5% CO2. Cells were routinely tested for Mycoplasma contamination.
ACHN cells, DAOY cells, or A427 cells were seeded at a density of 400, 250, or 500 cells per well respectively, in tissue culture treated 384 well plates (Corning Costar). After overnight incubation, cells were treated with drugs at concentrations ranging from 17 to 10 000 nM. Viability compared to untreated control was assessed at 144 h using Cell Titer Glo assay 2.0 (Promega). […] “NT” means the compounds was not tested in the indicated cells.

T4 sequence (P30291 whole entry): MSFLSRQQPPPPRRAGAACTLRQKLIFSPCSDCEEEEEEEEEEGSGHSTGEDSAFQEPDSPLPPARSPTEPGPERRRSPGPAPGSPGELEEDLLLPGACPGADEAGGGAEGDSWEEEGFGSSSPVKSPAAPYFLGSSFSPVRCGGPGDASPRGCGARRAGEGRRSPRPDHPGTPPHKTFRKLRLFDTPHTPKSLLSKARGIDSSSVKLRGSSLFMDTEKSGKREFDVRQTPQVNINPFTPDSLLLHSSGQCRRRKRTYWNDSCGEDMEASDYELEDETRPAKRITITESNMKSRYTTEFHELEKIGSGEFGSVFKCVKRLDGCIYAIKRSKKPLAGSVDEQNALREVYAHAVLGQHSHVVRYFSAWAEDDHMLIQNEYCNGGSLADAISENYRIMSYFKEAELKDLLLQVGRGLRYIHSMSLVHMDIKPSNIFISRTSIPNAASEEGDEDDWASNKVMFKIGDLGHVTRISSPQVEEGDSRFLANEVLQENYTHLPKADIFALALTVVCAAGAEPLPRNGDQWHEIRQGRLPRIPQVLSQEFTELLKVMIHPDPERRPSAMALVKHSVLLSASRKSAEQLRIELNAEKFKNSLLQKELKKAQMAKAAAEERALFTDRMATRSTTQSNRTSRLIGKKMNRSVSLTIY
T1 sequence (P30291 whole entry): as above

Compound | IC50 [1] | IC50 [2] | EC50 [3] | EC50 [4] | EC50 (ACHN cells) | EC50 (DAOY cells)
C=CCn1c(=O)c2cnc(Nc3ccnc(C)c3)nc2n1-c1cccc(OC2CCN(C)CC2)n1 [Compound 112, 1-{6-[(1-methylpiperidin-4-yl)oxy]pyridin-2-yl}-6-[(2-methylpyridin-4-yl)amino]-2-(prop-2-en-1-yl)-1H,2H,3H-pyrazolo[3,4-d]pyrimidin-3-one] | < 10 nM | 20 to 100 nM | 200 to 500 nM | < 100 nM | ≤ 100 nM | 100 to 500 nM
CN1CCC(Oc2cccc(-n3c4nc(Nc5ccc6c(cnn6C)c5)ncc4c(=O)n3C)n2)CC1 [Compound 121, 2-methyl-6-(1-methyl-1H-indazol-5-ylamino)-1-[6-(1-methyl-4-piperidyloxy)-2-pyridyl]-1,2-dihydro-3H-1,2,5,7-tetraazainden-3-one] | < 10 nM | 20 to 100 nM | 200 to 500 nM | < 100 nM | ≤ 100 nM | ≤ 100 nM
C=CCn1c(=O)c2cnc(Nc3cccc(C)c3)nc2n1-c1cccc(OC2CCN(C)CC2)n1 [Compound 191, 2-allyl-1-[6-(1-methyl-4-piperidyloxy)-2-pyridyl]-6-m-toluidino-1,2-dihydro-3H-1,2,5,7-tetraazainden-3-one] | < 10 nM | < 20 nM | 200 to 500 nM | < 100 nM | ≤ 100 nM | ≤ 100 nM
C=CCn1c(=O)c2cnc(Nc3ccc(C)nc3)nc2n1-c1cccc(OC2CCN(C)CC2)n1 [Compound 197, 2-allyl-1-[6-(1-methyl-4-piperidyloxy)-2-pyridyl]-6-(6-methyl-3-pyridylamino)-1,2-dihydro-3H-1,2,5,7-tetraazainden-3-one] | < 10 nM | 20 to 100 nM | 500 to 1000 nM | < 100 nM | ≤ 100 nM | ≤ 100 nM
C=CCn1c(=O)c2cnc(Nc3cc(C)cc(F)c3)nc2n1-c1cccc(OC2CCN(C)CC2)n1 [Compound 205, 6-[(3-fluoro-5-methylphenyl)amino]-1-{6-[(1-methylpiperidin-4-yl)oxy]pyridin-2-yl}-2-(prop-2-en-1-yl)-1H,2H,3H-pyrazolo[3,4-d]pyrimidin-3-one] | < 10 nM | 20 to 100 nM | 200 to 500 nM | < 100 nM | ≤ 100 nM | 100 to 500 nM
C=CCn1c(=O)c2cnc(Nc3ccc(F)cc3)nc2n1-c1cccc(OC2CCN(C)CC2)n1 [Compound 207, 6-[(4-fluorophenyl)amino]-1-{6-[(1-methylpiperidin-4-yl)oxy]pyridin-2-yl}-2-(prop-2-en-1-yl)-1H,2H,3H-pyrazolo[3,4-d]pyrimidin-3-one] | < 10 nM | 20 to 100 nM | 500 to 1000 nM | < 100 nM | ≤ 100 nM | ≤ 100 nM
C=CCn1c(=O)c2cnc(Nc3ccc4scnc4c3)nc2n1-c1cccc(OC2CCN(C)CC2)n1 [Compound 209, 2-allyl-6-(benzo[d]thiazol-5-ylamino)-1-(6-((1-methylpiperidin-4-yl)oxy)pyridin-2-yl)-1,2-dihydro-3H-pyrazolo[3,4-d]pyrimidin-3-one] | < 10 nM | < 20 nM | < 200 nM | < 100 nM | ≤ 100 nM | ≤ 100 nM
C=CCn1c(=O)c2cnc(Nc3ccc4oc(C)nc4c3)nc2n1-c1cccc(OC2CCN(C)CC2)n1 [Compound 231, 2-allyl-6-(2-methyl-1,3-benzoxazol-5-ylamino)-1-[6-(1-methyl-4-piperidyloxy)-2-pyridyl]-1,2-dihydro-3H-1,2,5,7-tetraazainden-3-one] | < 10 nM | < 20 nM | 200 to 500 nM | < 100 nM | ≤ 100 nM | ≤ 100 nM
C=CCn1c(=O)c2cnc(Nc3ccc4c(ccn4C)c3)nc2n1-c1cccc(OC2CCNCC2)n1 [Compound 236, 2-allyl-6-((1-methyl-1H-indol-5-yl)amino)-1-(6-(piperidin-4-yloxy)pyridin-2-yl)-1,2-dihydro-3H-pyrazolo[3,4-d]pyrimidin-3-one] | < 10 nM | 20 to 100 nM | 200 to 500 nM | < 100 nM | ≤ 100 nM | ≤ 100 nM

Now from value to compound, other results behind:

IC50 [1] | IC50 [2] | EC50 [3] | EC50 [4] | EC50 (ACHN cells) | Compound | EC50 (DAOY cells)
< 10 nM | < 20 nM | < 200 nM | < 100 nM | ≤ 100 nM | C=CCn1c(=O)c2cnc(Nc3ccc4c(cnn4C(C)C)c3)nc2n1-c1cccc(OC2CCN(C)CC2)n1 [Compound 248, 2-allyl-6-(1-isopropyl-1H-indazol-5-ylamino)-1-[6-(1-methyl-4-piperidyloxy)-2-pyridyl]-1,2-dihydro-3H-1,2,5,7-tetraazainden-3-one] | ≤ 100 nM
< 10 nM | < 20 nM | 200 to 500 nM | < 100 nM | ≤ 100 nM | C=CCn1c(=O)c2cnc(Nc3ccc4ncsc4c3)nc2n1-c1cccc(OC2CCN(C)CC2)n1 [Compound 303, 2-allyl-6-(1,3-benzothiazol-6-ylamino)-1-[6-(1-methyl-4-piperidyloxy)-2-pyridyl]-1,2-dihydro-3H-1,2,5,7-tetraazainden-3-one] | 100 to 500 nM
< 10 nM | 20 to 100 nM | 200 to 500 nM | < 100 nM | ≤ 100 nM | C=CCn1c(=O)c2cnc(Nc3ccc4c(c3)OCO4)nc2n1-c1cccc(OC2CCN(C)CC2)n1 [Compound 307, 2-allyl-6-(2H-1,3-benzodioxol-5-ylamino)-1-[6-(1-methyl-4-piperidyloxy)-2-pyridyl]-1,2-dihydro-3H-1,2,5,7-tetraazainden-3-one] | ≤ 100 nM
< 10 nM | < 20 nM | < 200 nM | < 100 nM | ≤ 100 nM | C=CCn1c(=O)c2cnc(Nc3ccc4ccoc4c3)nc2n1-c1cccc(OC2CCN(C)CC2)n1 [Compound 308, 2-allyl-6-(1-benzofuran-6-ylamino)-1-[6-(1-methyl-4-piperidyloxy)-2-pyridyl]-1,2-dihydro-3H-1,2,5,7-tetraazainden-3-one] | ≤ 100 nM
< 10 nM | < 20 nM | < 200 nM | < 100 nM | ≤ 100 nM | C=CCn1c(=O)c2cnc(Nc3ccc4occc4c3)nc2n1-c1cccc(OC2CCN(C)CC2)n1 [Compound 309, 2-allyl-6-(1-benzofuran-5-ylamino)-1-[6-(1-methyl-4-piperidyloxy)-2-pyridyl]-1,2-dihydro-3H-1,2,5,7-tetraazainden-3-one] | ≤ 100 nM
